We go through 6 cell lines from the supplement of paper PMC10307832.

Assay in all cases: relative viability (nuclei count vs DMSO), 5 days (fraction); higher = more cells survive
Compound in the assay “Doxorubicin + Trametinib”: COc1cccc2c1C(=O)c1c(O)c3c(c(O)c1C2=O)C[C@@](O)(C(=O)CO)C[C@@H]3O[C@H]1C[C@H](N)[C@H](O)[C@H](C)O1 [Doxorubicin] + CC(=O)Nc1cccc(-n2c(=O)n(C3CC3)c(=O)c3c(Nc4ccc(I)cc4F)n(C)c(=O)c(C)c32)c1 [Trametinib] (partner 0.02 µM)
The method in brief:
(§1)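 Lung cancer cell lines, seeded in 1536-well plates, were treated the following day by pin tool with a single drug or with five library-drug doses (not always all listed) in √10 steps on top of a fixed anchor-drug dose. Cells were fixed and nuclei stained in one step after 5 days, and nuclei were counted. Relative viability is the nuclei count for treated wells divided by that for vehicle wells, reported as medians of duplicate plates.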

Compound in the assay “Doxorubicin + Crizotinib”: COc1cccc2c1C(=O)c1c(O)c3c(c(O)c1C2=O)C[C@@](O)(C(=O)CO)C[C@@H]3O[C@H]1C[C@H](N)[C@H](O)[C@H](C)O1 [Doxorubicin] + C[C@@H](Oc1cc(-c2cnn(C3CCNCC3)c2)cnc1N)c1c(Cl)ccc(F)c1Cl [Crizotinib] (partner 1 µM)
The gist of the method:
as §1

Compound in the assay “BAY61-3606 + Olaparib”: COC1=C(C=C(C=C1)C2=CC3=NC=CN3C(=N2)NC4=C(C=CC=N4)C(=O)N)OC [BAY61-3606] + O=C(c1cc(Cc2n[nH]c(=O)c3ccccc23)ccc1F)N1CCN(C(=O)C2CC2)CC1 [Olaparib] (partner 8 µM)
The method in brief: as §1

Compound in the assay “Doxorubicin + OSI-027”: COc1cccc2c1C(=O)c1c(O)c3c(c(O)c1C2=O)C[C@@](O)(C(=O)CO)C[C@@H]3O[C@H]1C[C@H](N)[C@H](O)[C@H](C)O1 [Doxorubicin] + COc1cccc2cc(-c3nc([C@H]4CC[C@H](C(=O)O)CC4)n4ncnc(N)c34)[nH]c12 [OSI-027] (partner 0.5 µM)
The gist of the method: as §1

Consider NCI-H520, for which the relative viability in the assay with Doxorubicin + Trametinib (first compound 0.001 µM) stood at 0.706; with Doxorubicin + Trametinib (first compound 0.003162 µM) it was 0.739; with Doxorubicin + Trametinib (first compound 0.01 µM) it was 0.616; in the assay with Doxorubicin + Trametinib (first compound 0.03162 µM), 0.575; with Doxorubicin + Trametinib (first compound 0.1 µM), 0.536; with Doxorubicin + Crizotinib (first compound 0.001 µM) it was 0.649. Also, the relative viability with Doxorubicin + Crizotinib (first compound 0.003162 µM) came out at 0.597; in the assay with Doxorubicin + Crizotinib (first compound 0.01 µM), 0.793; in the assay with Doxorubicin + Crizotinib (first compound 0.03162 µM), 0.616; with Doxorubicin + Crizotinib (first compound 0.1 µM), 0.501; with BAY61-3606 + Olaparib (first compound 0.02 µM) it was 0.359; in the assay with BAY61-3606 + Olaparib (first compound 0.06325 µM) it was 0.325. The relative viability was found to be 0.383 with BAY61-3606 + Olaparib (first compound 0.2 µM); 0.391 in the assay with BAY61-3606 + Olaparib (first compound 0.6325 µM); 0.274 with BAY61-3606 + Olaparib (first compound 2 µM); 0.249 with Doxorubicin + OSI-027 (first compound 0.001 µM); 0.274 with Doxorubicin + OSI-027 (first compound 0.003162 µM); 0.233 with Doxorubicin + OSI-027 (first compound 0.01 µM). Also, the relative viability in the assay with Doxorubicin + OSI-027 (first compound 0.03162 µM) stood at 0.193; with Doxorubicin + OSI-027 (first compound 0.1 µM) it was 0.202.
As for NCI-H358, the relative viability with Doxorubicin + Trametinib (first compound 0.001 µM) came to 0.164; with Doxorubicin + Trametinib (first compound 0.003162 µM), 0.138; with Doxorubicin + Trametinib (first compound 0.01 µM), 0.138; in the assay with Doxorubicin + Trametinib (first compound 0.03162 µM), 0.089; in the assay with Doxorubicin + Trametinib (first compound 0.1 µM), 0.0919; with Doxorubicin + Crizotinib (first compound 0.001 µM), 0.728. The relative viability was 0.543 with Doxorubicin + Crizotinib (first compound 0.003162 µM); 0.441 with Doxorubicin + Crizotinib (first compound 0.01 µM); 0.202 with Doxorubicin + Crizotinib (first compound 0.03162 µM); 0.0991 with Doxorubicin + Crizotinib (first compound 0.1 µM); 0.654 with BAY61-3606 + Olaparib (first compound 0.02 µM); 0.601 with BAY61-3606 + Olaparib (first compound 0.06325 µM). Besides, the relative viability with BAY61-3606 + Olaparib (first compound 0.2 µM) came to 0.751; with BAY61-3606 + Olaparib (first compound 0.6325 µM) it was 0.573; with BAY61-3606 + Olaparib (first compound 2 µM) it was 0.449; with Doxorubicin + OSI-027 (first compound 0.001 µM) it was 0.853; in the assay with Doxorubicin + OSI-027 (first compound 0.003162 µM), 0.642; in the assay with Doxorubicin + OSI-027 (first compound 0.01 µM), 0.417. Besides, the relative viability with Doxorubicin + OSI-027 (first compound 0.03162 µM) came to 0.121; in the assay with Doxorubicin + OSI-027 (first compound 0.1 µM), 0.0934.
Take LC-2-ad: the relative viability is 0.949 with Doxorubicin + Trametinib (first compound 0.001 µM); 0.888 with Doxorubicin + Trametinib (first compound 0.003162 µM); 0.924 with Doxorubicin + Trametinib (first compound 0.01 µM); 0.924 in the assay with Doxorubicin + Trametinib (first compound 0.03162 µM); 0.895 with Doxorubicin + Trametinib (first compound 0.1 µM); 0.265 in the assay with Doxorubicin + Crizotinib (first compound 0.001 µM). Further, the relative viability came out at 0.414 with Doxorubicin + Crizotinib (first compound 0.003162 µM); 0.459 in the assay with Doxorubicin + Crizotinib (first compound 0.01 µM); 0.416 with Doxorubicin + Crizotinib (first compound 0.03162 µM); 0.389 in the assay with Doxorubicin + Crizotinib (first compound 0.1 µM); 0.703 with BAY61-3606 + Olaparib (first compound 0.02 µM); 0.701 in the assay with BAY61-3606 + Olaparib (first compound 0.06325 µM). Also, the relative viability is 0.723 with BAY61-3606 + Olaparib (first compound 0.2 µM); 0.717 in the assay with BAY61-3606 + Olaparib (first compound 0.6325 µM); 0.578 with BAY61-3606 + Olaparib (first compound 2 µM); 0.629 with Doxorubicin + OSI-027 (first compound 0.001 µM); 0.691 with Doxorubicin + OSI-027 (first compound 0.003162 µM); 0.587 with Doxorubicin + OSI-027 (first compound 0.01 µM). Further, the relative viability with Doxorubicin + OSI-027 (first compound 0.03162 µM) came out at 0.386; with Doxorubicin + OSI-027 (first compound 0.1 µM), 0.292.
Consider SK-MES-1, for which the relative viability came to 0.563 in the assay with Doxorubicin + Trametinib (first compound 0.001 µM); 0.572 with Doxorubicin + Trametinib (first compound 0.003162 µM); 0.513 in the assay with Doxorubicin + Trametinib (first compound 0.01 µM); 0.283 with Doxorubicin + Trametinib (first compound 0.03162 µM); 0.192 with Doxorubicin + Trametinib (first compound 0.1 µM); 1.08 in the assay with Doxorubicin + Crizotinib (first compound 0.001 µM). The relative viability stood at 1.05 with Doxorubicin + Crizotinib (first compound 0.003162 µM); 0.97 in the assay with Doxorubicin + Crizotinib (first compound 0.01 µM); 0.871 with Doxorubicin + Crizotinib (first compound 0.03162 µM); 0.865 with Doxorubicin + Crizotinib (first compound 0.1 µM); 0.679 with BAY61-3606 + Olaparib (first compound 0.02 µM); 0.786 in the assay with BAY61-3606 + Olaparib (first compound 0.06325 µM). Besides, the relative viability with BAY61-3606 + Olaparib (first compound 0.2 µM) is 0.606; with BAY61-3606 + Olaparib (first compound 0.6325 µM) it was 0.688; with BAY61-3606 + Olaparib (first compound 2 µM) it was 0.31; with Doxorubicin + OSI-027 (first compound 0.001 µM), 0.637; with Doxorubicin + OSI-027 (first compound 0.003162 µM), 0.719; in the assay with Doxorubicin + OSI-027 (first compound 0.01 µM) it was 0.516. The relative viability came to 0.174 with Doxorubicin + OSI-027 (first compound 0.03162 µM) and 0.129 in the assay with Doxorubicin + OSI-027 (first compound 0.1 µM).
Regarding SW 1573, the relative viability in the assay with Doxorubicin + Trametinib (first compound 0.001 µM) was 0.463; in the assay with Doxorubicin + Trametinib (first compound 0.003162 µM), 0.589; with Doxorubicin + Trametinib (first compound 0.01 µM) it was 0.187; with Doxorubicin + Trametinib (first compound 0.03162 µM) it was 0.102; in the assay with Doxorubicin + Trametinib (first compound 0.1 µM), 0.067; in the assay with Doxorubicin + Crizotinib (first compound 0.001 µM) it was 0.905. Further, the relative viability in the assay with Doxorubicin + Crizotinib (first compound 0.003162 µM) came to 0.794; in the assay with Doxorubicin + Crizotinib (first compound 0.01 µM), 0.85; with Doxorubicin + Crizotinib (first compound 0.03162 µM), 0.687; with Doxorubicin + Crizotinib (first compound 0.1 µM) it was 0.69; with BAY61-3606 + Olaparib (first compound 0.02 µM), 0.553; with BAY61-3606 + Olaparib (first compound 0.06325 µM) it was 0.455. Moreover, the relative viability was determined as 0.424 with BAY61-3606 + Olaparib (first compound 0.2 µM); 0.542 in the assay with BAY61-3606 + Olaparib (first compound 0.6325 µM); 0.259 in the assay with BAY61-3606 + Olaparib (first compound 2 µM); 0.527 with Doxorubicin + OSI-027 (first compound 0.001 µM); 0.513 with Doxorubicin + OSI-027 (first compound 0.003162 µM); 0.316 in the assay with Doxorubicin + OSI-027 (first compound 0.01 µM). Besides, the relative viability turned out to be 0.125 in the assay with Doxorubicin + OSI-027 (first compound 0.03162 µM) and 0.103 in the assay with Doxorubicin + OSI-027 (first compound 0.1 µM).
With CAL-12T, the relative viability stood at 0.381 in the assay with Doxorubicin + Trametinib (first compound 0.001 µM); 0.352 with Doxorubicin + Trametinib (first compound 0.003162 µM); 0.33 with Doxorubicin + Trametinib (first compound 0.01 µM); 0.225 with Doxorubicin + Trametinib (first compound 0.03162 µM); 0.125 in the assay with Doxorubicin + Trametinib (first compound 0.1 µM); 0.671 with Doxorubicin + Crizotinib (first compound 0.001 µM). Besides, the relative viability worked out at 0.507 with Doxorubicin + Crizotinib (first compound 0.003162 µM); 0.566 with Doxorubicin + Crizotinib (first compound 0.01 µM); 0.182 in the assay with Doxorubicin + Crizotinib (first compound 0.03162 µM); 0.116 with Doxorubicin + Crizotinib (first compound 0.1 µM); 0.748 with BAY61-3606 + Olaparib (first compound 0.02 µM); 0.773 with BAY61-3606 + Olaparib (first compound 0.06325 µM). The relative viability with BAY61-3606 + Olaparib (first compound 0.2 µM) turned out to be 0.735; in the assay with BAY61-3606 + Olaparib (first compound 0.6325 µM), 0.758; with BAY61-3606 + Olaparib (first compound 2 µM) it was 0.53; in the assay with Doxorubicin + OSI-027 (first compound 0.001 µM) it was 0.609; with Doxorubicin + OSI-027 (first compound 0.003162 µM), 0.695; with Doxorubicin + OSI-027 (first compound 0.01 µM), 0.515. Also, the relative viability came out at 0.194 with Doxorubicin + OSI-027 (first compound 0.03162 µM) and 0.146 in the assay with Doxorubicin + OSI-027 (first compound 0.1 µM).
